Test results as given in patent US20250195490A1, “ALPHA-METHYLENE AND AMINOMETHYL LACTONES AND LACTAMS FOR TREATMENT OF CLOSTRIDIOIDES DIFFICILE INFECTION (CDI)” (Purdue Research Foundation, priority 2022, published 2025).

Experiments:
Bi. longum = assay: MIC against human normal gut microbiota: Bifidobacterium longum; type: cell-based; conditions: Bi. longum HM 848
From the text: (§1) The activity of the selected lactones against the human gut microbiota was also examined. Microbiota interfere with C. difficile's ability to colonize the gastrointestinal tract and subsequently cause infection. Many antibiotics inhibit/kill the endogenous microflora, which permits enhanced colonization by C. difficile and infection. Three different bacterial species that are present in the gut microflora were used in this experiment; Bifidobacterium (anaerobic Gram-positive bacteria), Bacteroides (anaerobic Gram-negative bacteria) and Lactobacillus (microaerophilic Gram-positive bacteria). Ideal compounds/drugs are those with selective antibacterial activity against C. difficile so as to protect the indigenous microflora present in the GI tract from being damaged/killed (which will exacerbate infections caused by C. difficile).
(§2) Bifidobacterium and Bacteroides were first grown for 48 hours at 37° C., anaerobically, using brain heart infusion supplemented (BHIS) agar (brain heart infusion agar supplemented with hemin, vitamin K and L-cysteine). Lactobacillus was cultivated on MRS agar and incubated in the presence of 5% CO2 for 48 hours at 37° C. Each bacterium was suspended in phosphate-buffered saline (PBS) to achieve 0.5 McFarland standard and subsequently diluted in brain heart infusion supplemented broth (for Bifidobacterium and Bacteroides) or in MRS broth (for Lactobacillus) to achieve a bacterial inoculum of approximately 5×10^5 CFU/mL. Bacteria were then seeded in 96-well plates containing serial dilutions of the compounds and incubated for 48 hours. MICs reported in Table 4 are the minimum concentration of compound/control drug that inhibited the visual growth of bacteria.

C. albicans = assay: Broth microdilution against Candida albicans; type: cell-based; conditions: gradient 128 to 1 μg/mL, 24 hours
Procedure: (§3) Method: The minimum inhibitory concentration (MIC) of the compounds and control drugs, linezolid (antibiotic), vancomycin (antibiotic), 5-fluorocytosine (5-FC, antifungal drug), and fluconazole (antifungal drug) was determined using the broth microdilution method according to the guidelines outlined by the Clinical and Laboratory Standards Institute (CLSI) against clinically relevant bacterial (methicillin-resistant Staphylococcus aureus (MRSA), vancomycin-resistant Enterococcus faecalis (VRE), vancomycin-resistant Enterococcus faecium (VRE), Clostridioides difficile and Escherichia coli) and fungal (Candida albicans) strains. A solution equivalent to 0.5 McFarland standard was prepared from each strain and diluted in cation-adjusted Mueller-Hinton broth (for S. aureus and E. coli), tryptone soy broth (for E. faecalis), or brain heart infusion broth (for E. faecium) to achieve a bacterial inoculum of about 5×10^5 CFU/mL. C. difficile strains were cultured in brain heart infusion broth supplemented with hemin and vitamin K. C. albicans was diluted in RPMI medium supplemented with 3-(N-morpholino) propanesulfonic acid to achieve a fungal concentration of about 1.5×10^3 CFU/mL. Compounds and control drugs were added in the first row of the 96-well plates and diluted with media containing bacteria (to achieve a concentration gradient ranging from 128 to 1 μg/mL). For MRSA, VRE, and E. coli strains, plates were then incubated aerobically at 37° C. for at least 18 hours. C. albicans was incubated aerobically at 37° C. for 24 hours. Plates containing C. difficile were incubated anaerobically at […] for 48 hours.

L. reuteri = assay: MIC against human normal gut microbiota: L. reuteri; type: cell-based, Lactobacillus reuteri; conditions: L. reuteri HM 120
From the text: as §1, §2

L. crispatus = assay: MIC against human normal gut microbiota: L. crispatus; type: cell-based, Lactobacillus crispatus
From the text: as §1, §2

[1] = system: hypervirulent Clostridioides difficile strains; assay: MIC against hypervirulent Clostridioides difficile strains; type: cell-based
Procedure: (§4) The antibacterial activity of compounds 48, 50, 51, 61 and 85 against a panel of Clostridioides difficile strains was evaluated. A bacterial solution equivalent to 0.5 McFarland standard was prepared and diluted in brain heart infusion broth supplemented with hemin and vitamin K. Compounds and control drugs were added in the first row of 96-well plates and serially diluted with media containing bacteria (to achieve a concentration gradient ranging from 128 to 1 μg/mL). Plates were then incubated anaerobically at […] for 48 hours.

E. faecium = assay: Broth microdilution against vancomycin-resistant E. faecium; type: cell-based, Enterococcus faecium; conditions: gradient 128 to 1 μg/mL
Procedure: as §3

MRSA (USA300) = assay: microbe, parasite or virus in culture; type: cell-based, Staphylococcus aureus; conditions: aerobic, 37° C., at least 18 hours
Procedure: as §3

Bi. breve = assay: MIC against human normal gut microbiota: Bifidobacterium breve; type: cell-based; conditions: Bi. breve HM 856
From the text: as §1, §2

Ba. fragilis = assay: MIC against human normal gut microbiota: Bacteroides fragilis; type: cell-based
From the text: as §1, §2

[2] = system: clinically important Clostridioides difficile strains; assay: MIC against clinically important Clostridioides difficile strains; type: cell-based
Procedure: as §4

Clostridioides difficile = assay: MIC by broth microdilution against Clostridioides difficile (Table 1); type: cell-based; conditions: anaerobic, 48 hours; strain BAA-1870
Procedure: as §3

E. faecalis (VRE) = assay: microbe, parasite or virus in culture; type: cell-based, Enterococcus faecalis; conditions: aerobic, 37° C., at least 18 hours
Procedure: as §3

Ba. dorsei = assay: MIC against human normal gut microbiota: Bacteroides dorsei; type: cell-based
From the text: as §1, §2

E. coli (TolC mutant) = assay: MIC by broth microdilution against E. coli (TolC mutant); type: cell-based, Escherichia coli; conditions: for MIC E. coli (TolC mutant): aerobic, 37° C., at least 18 hours
Procedure: as §3

L. gasseri = assay: MIC against human normal gut microbiota: L. gasseri; type: cell-based, Lactobacillus gasseri; conditions: L. gasseri HM 407
From the text: as §1, §2

L. casei = assay: MIC against human normal gut microbiota: L. casei; type: cell-based, Lactobacillus casei; conditions: L. casei HM 334
From the text: as §1, §2

CC(C)(C)[Si](C)(C)OCCC1OC(=O)C(CN2CCCCC2)C1c1cccc(Br)c1 (racemic) [Compound 48]
inactive: activity against C. albicans (C. albicans)
16 µg/mL: MIC ([1]; CD strain 81)
>128 µg/mL: MIC (Bi. longum) | MIC (L. reuteri) | MIC (L. crispatus; L. crispatus HM 375) | MIC (L. crispatus; L. crispatus HM 421) | MIC MRSA (USA300) (MRSA (USA300)) | MIC (Bi. breve) | MIC (Ba. fragilis; Ba. fragilis HM 709) | MIC (Ba. fragilis; Ba. fragilis HM 710) | MIC (Ba. fragilis; Ba. fragilis HM 711) | MIC (Ba. fragilis; Ba. fragilis HM 714) | MIC E. faecalis (VRE) (E. faecalis (VRE)) | MIC (Ba. dorsei; Ba. dorsei HM 29) | MIC (Ba. dorsei; Ba. dorsei HM 717) | MIC E. coli (TolC mutant) (E. coli (TolC mutant)) | MIC (L. gasseri) | MIC (L. casei)
8 µg/mL: MIC ([1]; CD strain 82) | MIC ([1]; CD strain 83) | MIC ([1]; CD strain 84) | MIC ([1]; CD strain 85) | MIC ([1]; CD strain 86) | MIC ([1]; CD strain 49279) | MIC ([2]; CD strain 1801) | MIC ([2]; CD strain 43255) | MIC ([2]; CD strain P6) | MIC Clostridioides difficile (Clostridioides difficile)
did not inhibit: inhibition of the tested strains of E. faecium (E. faecium)
4 µg/mL: MIC ([1]; CD strain 87) | MIC ([1]; CD strain 90) | MIC ([1]; CD strain 49287) | MIC ([1]; CD strain 49291) | MIC ([2]; CD strain 16) | MIC ([2]; CD strain 19)
2 µg/mL: MIC ([2]; CD strain 18) | MIC ([2]; CD strain P7) | MIC ([2]; CD strain P13) | MIC ([2]; CD strain P19)

C=C1C(=O)OC(CCCCCCCC)C1C=Cc1ccccc1 (racemic) [Compound 51]
2 µg/mL: MIC ([2]; CD strain 18) | MIC ([2]; CD strain P13)
32 µg/mL: MIC ([1]; CD strain 86) | MIC ([1]; CD strain 87) | MIC ([2]; CD strain 1801)
did not inhibit: inhibition of the tested strains of E. faecium (E. faecium)
64 µg/mL: MIC ([1]; CD strain 84) | MIC ([1]; CD strain 85)
16 µg/mL: MIC ([1]; CD strain 81) | MIC ([1]; CD strain 82) | MIC ([1]; CD strain 83) | MIC ([1]; CD strain 49279) | MIC ([2]; CD strain 16) | MIC ([2]; CD strain 19) | MIC ([2]; CD strain 43255) | MIC ([2]; CD strain P7) | MIC ([2]; CD strain P19)
8 µg/mL: MIC ([1]; CD strain 49287) | MIC ([1]; CD strain 49291) | MIC ([2]; CD strain P6) | MIC Clostridioides difficile (Clostridioides difficile)
>128 µg/mL: MIC (Bi. longum) | MIC (L. reuteri) | MIC (L. crispatus; L. crispatus HM 375) | MIC (L. crispatus; L. crispatus HM 421) | MIC MRSA (USA300) (MRSA (USA300)) | MIC (Bi. breve) | MIC (Ba. fragilis; Ba. fragilis HM 709) | MIC (Ba. fragilis; Ba. fragilis HM 710) | MIC (Ba. fragilis; Ba. fragilis HM 711) | MIC (Ba. fragilis; Ba. fragilis HM 714) | MIC E. faecalis (VRE) (E. faecalis (VRE)) | MIC (Ba. dorsei; Ba. dorsei HM 29) | MIC (Ba. dorsei; Ba. dorsei HM 717) | MIC E. coli (TolC mutant) (E. coli (TolC mutant)) | MIC (L. gasseri) | MIC (L. casei)
inactive: activity against C. albicans (C. albicans)
4 µg/mL: MIC ([1]; CD strain 90)

C=C1C(=O)O[C@H](c2c(OC)cc(OC)cc2OC)[C@@H]1c1ccc(C(F)(F)F)cc1 (racemic) [Compound 61]
64 µg/mL: MIC ([1]; CD strain 83) | MIC ([1]; CD strain 84) | MIC ([1]; CD strain 85) | MIC ([1]; CD strain 49279)
8 µg/mL: MIC ([1]; CD strain 87) | MIC ([1]; CD strain 49287) | MIC ([1]; CD strain 49291) | MIC ([2]; CD strain 19) | MIC ([2]; CD strain P6) | MIC ([2]; CD strain P7) | MIC ([2]; CD strain P13) | MIC ([2]; CD strain P19) | MIC Clostridioides difficile (Clostridioides difficile)
16 µg/mL: MIC ([1]; CD strain 81) | MIC ([1]; CD strain 82) | MIC ([1]; CD strain 90) | MIC ([2]; CD strain 16) | MIC ([2]; CD strain 1801)
inactive: activity against C. albicans (C. albicans)
did not inhibit: inhibition of the tested strains of E. faecium (E. faecium)
32 µg/mL: MIC ([1]; CD strain 86)
4 µg/mL: MIC ([2]; CD strain 43255)
>128 µg/mL: MIC (Bi. longum) | MIC (L. reuteri) | MIC (L. crispatus; L. crispatus HM 375) | MIC (L. crispatus; L. crispatus HM 421) | MIC MRSA (USA300) (MRSA (USA300)) | MIC (Bi. breve) | MIC (Ba. fragilis; Ba. fragilis HM 709) | MIC (Ba. fragilis; Ba. fragilis HM 710) | MIC (Ba. fragilis; Ba. fragilis HM 711) | MIC (Ba. fragilis; Ba. fragilis HM 714) | MIC E. faecalis (VRE) (E. faecalis (VRE)) | MIC (Ba. dorsei; Ba. dorsei HM 29) | MIC (Ba. dorsei; Ba. dorsei HM 717) | MIC E. coli (TolC mutant) (E. coli (TolC mutant)) | MIC (L. gasseri) | MIC (L. casei)
2 µg/mL: MIC ([2]; CD strain 18)

C=C1C(=O)O[C@H](c2ccc(OCc3ccccc3)c(OC(C)=O)c2)[C@@H]1c1ccccc1Br (racemic) [Compound 85]
inactive: activity against C. albicans (C. albicans)
did not inhibit: inhibition of the tested strains of E. faecium (E. faecium)
>128 µg/mL: MIC (Bi. longum) | MIC (L. reuteri) | MIC (L. crispatus; L. crispatus HM 375) | MIC (L. crispatus; L. crispatus HM 421) | MIC MRSA (USA300) (MRSA (USA300)) | MIC (Bi. breve) | MIC (Ba. fragilis; Ba. fragilis HM 709) | MIC (Ba. fragilis; Ba. fragilis HM 710) | MIC (Ba. fragilis; Ba. fragilis HM 711) | MIC (Ba. fragilis; Ba. fragilis HM 714) | MIC E. faecalis (VRE) (E. faecalis (VRE)) | MIC (Ba. dorsei; Ba. dorsei HM 29) | MIC (Ba. dorsei; Ba. dorsei HM 717) | MIC E. coli (TolC mutant) (E. coli (TolC mutant)) | MIC (L. gasseri) | MIC (L. casei)
4 µg/mL: MIC ([1]; CD strain 81) | MIC ([1]; CD strain 83) | MIC ([1]; CD strain 84) | MIC ([1]; CD strain 86) | MIC ([1]; CD strain 49279) | MIC ([2]; CD strain 16) | MIC ([2]; CD strain 18) | MIC ([2]; CD strain 19) | MIC ([2]; CD strain 43255) | MIC ([2]; CD strain P6) | MIC ([2]; CD strain P7) | MIC ([2]; CD strain P13) | MIC Clostridioides difficile (Clostridioides difficile)
2 µg/mL: MIC ([1]; CD strain 82) | MIC ([1]; CD strain 85) | MIC ([1]; CD strain 87) | MIC ([1]; CD strain 90) | MIC ([1]; CD strain 49287) | MIC ([1]; CD strain 49291) | MIC ([2]; CD strain 1801) | MIC ([2]; CD strain P19)

CC(=O)NC[C@H]1CN(c2ccc(N3CCOCC3)c(F)c2)C(=O)O1 [Linezolid, reference compound]
1 µg/mL: MIC (MRSA (USA300); Staphylococcus aureus, read-out: MIC MRSA (USA300)) | MIC (E. faecalis (VRE); Enterococcus faecalis, VRE)
16 µg/mL: MIC (E. coli (TolC mutant); Escherichia coli, 18 h, read-out: MIC E. coli (TolC mutant))
